# Data published in patent EP2161259A1, “4-Haloalkyl substituted Diaminopyrimidine” (Bayer CropScience AG, priority 2008, dated 2010).
# Test system: Puccinia recondita
# Assay: Puccinia test (wheat) / protective
# Format: in vivo
# Settings: 500 ppm
row,Compound,Wirkungsgrad [%]
1,CC(=O)Nc1cc(Nc2ncc(Cl)c(NCC(F)(F)F)n2)ccc1C [Verbindung 38],≥ 70
2,CN(C)C(=O)c1ccc(Nc2ncc(Cl)c(NCC(F)F)n2)cc1 [Verbindung 40],≥ 70
3,C=CCNC(=O)c1ccc(Nc2ncc(Cl)c(NCC(F)F)n2)cc1 [Verbindung 41],≥ 70

# Same assay, conditions: 500ppm active compound; wheat, protective; evaluation 7-9 days after inoculation
row,Compound,Wirkungsgrad [%]
1,O=Cc1cccc(Nc2ncc(Cl)c(NCC(F)F)n2)c1 [Verbindung 47],≥ 70

# Test system: not listed separately
# Assay: physchem
# Settings: pH 2.3
row,chromatographic logP,Compound
1,1.62,"O=c1[nH]c(Nc2ccccc2)ncc1Br [IX-1, 2-Anilino-5-brompyrimidin-4(3H)-on]"
2,2.87,CC(Nc1nc(Nc2ccccc2)ncc1Cl)C(F)(F)F (stereo not shown) [Verbindung 2]

# Same assay, conditions: pH 2.7
row,chromatographic logP,Compound
1,2.06,COc1ccc(Nc2ncc(Cl)c(NCC(F)(F)F)n2)cc1 [Verbindung 7]
2,2.77,N#Cc1ccc(Nc2ncc(Cl)c(NCC(F)(F)F)n2)cc1 [Verbindung 8]
3,3.72,FC(F)(F)CNc1nc(Nc2cccc(OC(F)(F)F)c2)ncc1Cl [Verbindung 9]
4,2.21,CS(=O)(=O)c1ccc(Nc2ncc(Cl)c(NCC(F)(F)F)n2)cc1 [Verbindung 10]
5,2.64,CN(C)S(=O)(=O)c1ccc(Nc2ncc(Cl)c(NCC(F)(F)F)n2)cc1 [Verbindung 11]
6,3.55,CSc1ccc(Nc2ncc(Cl)c(NCC(F)(F)F)n2)cc1Cl [Verbindung 12]
7,2.04,CC(=O)Nc1ccc(Nc2ncc(Cl)c(NCC(F)(F)F)n2)cc1Cl [Verbindung 14]
8,2.55,O=C(Nc1ccc(Nc2ncc(Cl)c(NCC(F)(F)F)n2)cc1)C(F)(F)F [Verbindung 17]
9,2.16,CC1(C(=O)Nc2ccc(Nc3ncc(Cl)c(NCC(F)(F)F)n3)cc2)CC1 [Verbindung 18]
10,2.16,C=C(C)C(=O)Nc1cccc(Nc2ncc(Cl)c(NCC(F)(F)F)n2)c1 [Verbindung 20]
11,1.66,CNC(=O)c1ccc(Nc2ncc(Cl)c(NCC(F)(F)F)n2)cc1 [Verbindung 22]
12,2.92,CSc1ccc(Nc2ncc(Cl)c(NCC(F)(F)F)n2)cc1 [Verbindung 25]
13,2.51,CC(=O)c1ccc(Nc2ncc(Cl)c(NCC(F)(F)F)n2)cc1 [Verbindung 28]
14,1.47,O=C1NC(=O)C(c2ccc(Nc3ncc(Cl)c(NCC(F)(F)F)n3)cc2)N1 (stereo not shown) [Verbindung 30]
15,1.85,COC(=O)Nc1ccc(Nc2ncc(Cl)c(NCC(F)(F)F)n2)cc1 [Verbindung 31]
16,2.11,CCOC(=O)Nc1ccc(Nc2ncc(Cl)c(NCC(F)(F)F)n2)cc1 [Verbindung 32]
17,2.36,CCOC(=O)Nc1cccc(Nc2ncc(Cl)c(NCC(F)(F)F)n2)c1 [Verbindung 33]
18,1.61,CC(=O)Nc1cc(Nc2ncc(Cl)c(NCC(F)(F)F)n2)ccc1C [Verbindung 38]
19,1.55,CN(C)C(=O)c1ccc(Nc2ncc(Cl)c(NCC(F)F)n2)cc1 [Verbindung 40]
20,1.84,C=CCNC(=O)c1ccc(Nc2ncc(Cl)c(NCC(F)F)n2)cc1 [Verbindung 41]

row,Compound,chromatographic logP
1,"CC(CC(F)(F)F)Nc1nc(Nc2ccccc2)ncc1Br (stereo not shown) [Verbindung 42, 5-Brom-N^2-phenyl-N^4-(4,4,4-trifluorbutan-2-yl)pyrimidin-2,4-diamin]",2.4

# Same assay, conditions: pH 7.8
row,chromatographic logP,Compound
1,2.49,O=Cc1cccc(Nc2ncc(Cl)c(NCC(F)F)n2)c1 [Verbindung 47]
